Measured values published in patent US20060235062A1, “Novel heterocyclic analogs of diphenylethylene compounds” (THERACOS, INC., priority 2002, published 2006).

Tests used:
ob/ob mice = experiment: Antihyperglycemic activity and serum parameters in ob/ob mice; format: in vivo; parameters: decrease in triglyceride as compared to the control / lowering of FFA compared to the control / decrease in the GHb level compared to the control / reduction of serum insulin / reduction of triglycerides / reduction of free fatty acid (FFA) levels: concentration or dose not given beside the values
COX-2 = target: T1, COX-2 (Mus musculus, UniProt Q05769); experiment: LPS-induced COX-2 activity in RAW cells (PGE2 production); format: cell-based; settings: 0.1-100 μM, FIG. 12
T1 sequence (Q05769 18-604): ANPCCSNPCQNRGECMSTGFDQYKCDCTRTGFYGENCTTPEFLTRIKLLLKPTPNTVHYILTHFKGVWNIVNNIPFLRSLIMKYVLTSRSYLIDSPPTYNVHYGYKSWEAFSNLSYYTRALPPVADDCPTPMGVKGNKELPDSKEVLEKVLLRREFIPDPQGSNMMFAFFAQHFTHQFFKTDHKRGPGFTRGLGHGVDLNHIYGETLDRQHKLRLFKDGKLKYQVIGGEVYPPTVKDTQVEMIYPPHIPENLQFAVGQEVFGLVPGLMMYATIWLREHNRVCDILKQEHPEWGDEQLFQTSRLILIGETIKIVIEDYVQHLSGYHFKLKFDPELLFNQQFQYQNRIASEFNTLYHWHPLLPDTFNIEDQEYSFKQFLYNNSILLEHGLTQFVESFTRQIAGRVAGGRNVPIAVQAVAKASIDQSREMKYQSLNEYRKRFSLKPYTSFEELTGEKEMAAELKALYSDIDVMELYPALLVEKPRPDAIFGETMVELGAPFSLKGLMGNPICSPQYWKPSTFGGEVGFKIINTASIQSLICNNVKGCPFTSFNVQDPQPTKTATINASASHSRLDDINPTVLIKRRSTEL
Description: After 1 hour LPS (0.1 pg/mL) was added and cells were incubated an additional 6 hours. Cell supernatant was then collected, aliquoted and frozen at −70° C., and aliquots used to determine COX-2 and COX-1 activity. Compound 11, but not rosiglitazone, inhibited the activity of COX-2 (as measured by PGE2 production in a 50 μl sample).

SJL-/J mice = experiment: Experimental allergic encephalomyelitis (EAE) in mice; format: in vivo; settings: 200 μg once daily subcutaneous, FIG. 14
HepG2 cells = experiment: Glycogen synthesis in HepG2 cells; format: cell-based; settings: HepG2, absence of insulin
IkappaB = experiment: LPS-stimulated phosphorylation of IkappaB in RAW 264.7 cells; format: cell-based; settings: RAW 264.7 cells, 3, 10 or 30, LPS plus IFN-gamma, anti-phospho-IkappaB blot
TNF-alpha = experiment: LPS-induced TNF-alpha production in RAW cells (ELISA); format: cell-based; settings: RAW cells, 0.1, 1, 10, 50 or 100 pM, 1 hour preincubation, LPS 6 hours, FIG. 9
3T3-L1 adipocytes = experiment: Glucose uptake in differentiated 3T3-L1 adipocytes; format: cell-based
Description: Referring to FIG. 8 glucose uptake in 3T3-L1 differentiated adipocytes was measured after treatment with the test compound. The assay was conducted according to the method of Tafuri, Endocrinology, 137, 4706-4712 (1996). The serum-starved cells were treated with the test compound for 48 hours at different concentrations, then washed and incubated in glucose-free media for 30 minutes at 37° C. Then ^14C-deoxyglucose was added and uptake was monitored for 30 minutes under incubation. After washing, the cells were lysed (0.1% SIDS) and counted.
Basal glucose uptake was measured in differentiated 3T3-L1 adipocytes following the protocol of Tafuri (6) with modifications. Briefly, 3T3-L1 fibroblasts, obtained from ATCC (Manassas, Va.), were differentiated to adipocytes by treating cells with porcine insulin (1 μg/ml for 4 days), dexamethasone (0.25 μM for first 2 days) and isobutyl methyl xanthine (IBMX, 0.5 mM for first 2 days) (all from Sigma Chemicals, St Louis, Mo.) following the protocol of Frost and Lane (7). Differentiated adipocytes were incubated in Dulbecco's Modified Eagle Medium (DMEM) containing 10% fetal bovine serum (GibcoBRL, Gaithersburg, Md.) with various concentrations of Compound 11 or vehicle (0.1% DMSO) for 48 h in 24-well plates, in triplicate. Cells were washed with phosphate buffered saline (PBS, 150 mM NaCl, 1 mM KH2PO4, 3 mM Na2HPO4; pH 7.4) and incubated in glucose-free DMEM for 2 h at 37° C. The cells were washed 3 times with Krebs Ringer Phosphate Buffer (KRP). Glucose uptake was initiated by addition of 0.25 μCi 2-^14C(U)-deoxy-D-glucose (300 μCi/mmol, American Radiolabeled Chemicals Inc., St Louis, Mo.) per well and the cells incubated for 10 min at room temperature in the presence of 0.1 mmol cold 2-deoxy-D-glucose. Finally, the cells were washed three times with ice-cold PBS containing 10 mM cold glucose, lysed with 0.5% SDS, and counted in a scintillation counter (Beckman LS6500).

IL-1-beta = experiment: LPS-induced IL-1-beta production in RAW cells (ELISA); format: cell-based; settings: RAW cells, 0.1, 1, 10, 50 or 100 pM, FIG. 11
IL-6 = experiment: LPS-induced IL-6 production in RAW cells (ELISA); format: cell-based; settings: RAW cells, 0.1, 1, 10, 50 or 100 pM, FIG. 10
[1] = after fourteen days of treatment, p<0.05 vs vehicle
[2] = ob/ob mice, 50 mg/kg, 14 days, FIG. 17A

SMILES: COC(=O)C(=Cc1cc(OC)cc(OC)c1)c1ccc(Oc2ccc(CC3SC(=O)NC3=O)cc2)cc1 (stereo not shown) [Compound 11, 3-(3,5-Dimethoxyphenyl)-2-{4-[4-(2,4-dioxothiazolidin-5-ylmethyl)-phenoxy]-phenyl}-acrylic acid methyl ester]
- reduction of free fatty acid (FFA) levels (ob/ob mice; [1]): 33%
- reduction of serum insulin (ob/ob mice; [1]): 58%
- reduction of triglycerides (ob/ob mice; [1]): 65%
- glycosylated hemoglobin after treatment (ob/ob mice; after fourteen days of treatment, reduced from 5.2%, p=0.15, FIG. 18): 3.8%
- dose response of glucose lowering (ob/ob mice; ob/ob mice (n=8), three different doses, FIG. 19): dose dependent glucose lowering effect
- weight gain in treated and control animals (ob/ob mice; ob/ob mice, 50 mg/kg oral once daily, 8 to 9 days): similar
- decrease in blood glucose levels (ob/ob mice; ob/ob mice, 50 mg/kg oral once daily, 8 to 9 days, FIG. 21): 59 % vs. baseline
- normalization of blood glucose levels (ob/ob mice; [2]): normalized by three days
- time to significant decrease of blood glucose levels (ob/ob mice; [2]): ≤ 48 h
- body weight compared to vehicle treated group (ob/ob mice; ob/ob mice, 50 mg/kg, 14 days, FIG. 17B): did not see any increase
- drop of serum insulin (ob/ob mice; ob/ob mice, after 10 days of treatment, FIG. 6A): 58%
- lowering of FFA compared to the control (ob/ob mice; ob/ob mice, after 10 days of treatment, FIG. 6C): 33%
- decrease in the GHb level compared to the control (ob/ob mice; ob/ob mice, after 14 days of treatment, FIG. 6D): 1.3%
- decrease in triglyceride as compared to the control (ob/ob mice; ob/ob mice, after treatment for 10 days, FIG. 6B): 65%
- drop in blood glucose level (ob/ob mice; ob/ob mice, oral 50 mg/kg, 15 days, FIG. 2A): 62%
- body weight, control vs treatment group (ob/ob mice; ob/ob mice, oral 50 mg/kg, FIG. 2B): no significant increase
- in vivo potency relative to rosiglitazone on a mole-per-mole basis (more potent) (ob/ob mice; ob/ob mice, same glucose lowering at 10 mg/kg): 46%
- inhibition of COX-2 activity (PGE2 production) (COX-2): inhibited
- amelioration of EAE (clinical score) (SJL-/J mice): highly effective
- 14C-glucose incorporated into glycogen, dose response (HepG2 cells; FIG. 25A): dose-dependent increase
- maximal increase in glycogen synthesis over baseline (HepG2 cells; at 48 to 72 h, FIG. 25B): 3.1 fold
- inhibition of the phosphorylation of IkappaB (IkappaB): dose-dependent inhibition
- inhibition of LPS-induced TNF-alpha production (TNF-alpha): better inhibitor of TNF-alpha than rosiglitazone
- glucose uptake activity in words (3T3-L1 adipocytes; 0.1 μM): retained activity, but less than that of rosiglitazone
- glucose uptake activity in words (3T3-L1 adipocytes; 1 μM): comparable to rosiglitazone
- effect on insulin-stimulated glucose uptake (3T3-L1 adipocytes; 5 μM with increasing insulin, FIG. 20B): additive, not synergistic
- maximum glucose uptake over basal levels (3T3-L1 adipocytes; 0.01-10 μM, 48 h, mean±SE, FIG. 20A): 1.33±0.02 fold
- % Glucose uptake 0.1 μm (3T3-L1 adipocytes; 0.1 μm, average of quadruplicate ± SD): 161.6 ± 11.4 % basal of the non treated cells
- % Glucose uptake 1.0 μm (3T3-L1 adipocytes; 1.0 μm, average of quadruplicate ± SD): 218.1 ± 10.0 % basal of the non treated cells
- blood glucose level (db/db mice; db/db male mice, oral 50 mg/kg, 15 days, FIG. 1A): substantial reduction
- decrease in blood glucose levels (db/db mice; db/db mice, 50 mg/kg oral once daily, 8 to 9 days, FIG. 21): 32 % vs. baseline
- blood glucose lowering effect (db/db mice; db/db mice, 50 mg/kg/day orally, 14 days, FIG. 16A): dramatic, comparable blood glucose lowering effects
- drop in triglyceride levels (db/db mice; db/db mice, after 15 days of treatment, FIG. 5A): 24%
- drop in FFA levels (db/db mice; db/db mice, after 15 days of treatment, FIG. 5B): 34%
- drop in the GHb level (db/db mice; db/db mice, after 15 days of treatment, FIG. 5C): 0.7%
- increase in the serum leptin level compared to the control group (db/db mice; db/db mice, after 15 days of treatment, FIG. 5D): 23 °/a
- glucose lowering effect, maximal at 24 hrs (db/db mice; db/db mice, single oral dose 50 mg/kg, at 24 hrs): 23 % of 0 min
- duration of effect on blood glucose (db/db mice; db/db mice, single oral dose, FIG. 4): ≥ 24 h
- inhibition of LPS-induced IL-1-beta production (IL-1-beta): inhibited IL-1-beta better than rosiglitazone
- inhibition of LPS-induced IL-6 production (IL-6): better inhibitor of IL-6 than rosiglitazone
